Measurements as given in US6900200B2, “Tricyclic hydroxy carboxamides and derivatives thereof tocolytic oxytocin receptor antagonists” (Wyeth, priority 2001, dated 2005).

Molecular target: T1, human vasopressin V2 receptor subtype (Homo sapiens, UniProt P30518)
T1 construct: host or cells: CHO cells, pZeoSV vector
Experiment: Vasopressin binding in CHO cell membranes expressing human vasopressin V2 subtype receptors ([3H]arginine vasopressin radioligand binding)
Conditions: for IC50: value printed in parentheses
Source text: Vasopressin Binding in Chinese Hamster Ovary Cell Membranes Expressing Human Vasopressin V2 Subtype Receptors
Chinese Hamster Ovary (CHO) cells stably transfected with the human V2 subtype receptors were obtained from M. Thibonnier, Case Western Reserve University School of Medicine, Cleveland, Ohio.
A. Passaging and Amplification of Cells
CHO cells transfected with the human vasopressin V2 subtype receptors obtained from M. Thibonnier (pZeoSV vector) are allowed to grow to confluency (approx. >90%) in T-150 flasks under sterile conditions, in a cell culture medium ofF-12 Nutrient Mixture (HAM) with L-glutamine (Gibco Cat. #11765-054) containing 15 mM HEPES (Gibco Cat. #15630-080), 1% antibiotic/antimycotic (add 5 mL 100×, Gibco Cat. #15240-062 per 500 mL F-12), 250 μg/mL Zeocin (add 1.25 mL of 100 mg/mL Invitrogen R-250-01 per 500 mL F-1 2) and 10% Fetal Bovine Serum (Qualified, heat inactivated, Gibco Cat. #16140-063). The medium is removed by aspiration and the cells washed with 10 mL of Hank's Balanced Salt solution (Gibco Cat. #14175-095). The salt solution is removed by aspiration and the cells trypsinized with 5 mL of trypsin-EDTA (0.05% trypsin, 0.53 mM EDTA-4Na, Gibco Cat. #25300-070) for 1 min. The trypsin is removed by aspiration and the cells dislodged by tapping. Cell Culture medium (e.g. 30 mL for 1:30 split) is immediately added and mixed well to inactivate trypsin. 1 mL of detached cells is added to new culture flasks containing fresh Cell Culture medium (e.g. into 25 mL per T-150 flask), and mixed gently. The cells are incubated at 37° C. in 5% CO2. The medium is changed at 3 to 4 day interval (or as appropriate). The cells grow to confluency (approx. >75%-95%) within 7-8 days. All steps are done under sterile conditions.
The cells are washed twice gently with Hank's Balanced Salt solution (e.g. use 10 mL per T-150 flask). The excess solution is removed and the cells bathed for 15-30 min. in an enzyme-free Cell Dissociation Buffer (e.g. use 8 mL Hank's Based, Gibco Cat. # 13150-016 per T-150 flask) until cells are loosened. The contents are transferred to centrifuge tubes (50 mL) kept in ice bath. All subsequent steps are done at 4° C. The tubes are centrifuged at 300×g for 15 min (1380 rpm on SORVAL, Model RT6000D, using the rotor for 50 mL tubes). The supernatant is discarded and the cells suspended in homogenizing buffer (10 mM Tris-HCl containing 0.25 M sucrose and 1 mM EDTA, pH 7.4) ensuring that the volume of the buffer is about ten times the volume of the cell pellet. The cells are pooled into a centrifuge tube (50 mL) and homogenized with Polytron at setting 6 for 10 sec. The homogenate is transferred into a Potter-Elvjehm homogenizer and homogenized with 3 strokes. The homogenate is centrifuged at 1500×g for 60 min at 4° C. (3100 rpm using SORVAL, model RT6000D, using the rotor for 50 mL tubes). The pellet is discarded. The supernatant is centrifuged at 100,000×g for 60 min. at 4° C. (Beckman L8-80M ultracentrifuge; spin at 37,500 rpm with rotor type 70 Ti for 50 mL tubes; 38,000 rpm with type 80Ti for 15 mL tubes; or 35,800 rpm with rotor type 45Ti). The supernantant is discarded and the pellet suspended in 3 to 4 mL of Tris buffer (50 mM TRIS—HCl, pH 7.4). The protein content is estimated by the Bradford or Lowry method. The volume of the membrane suspension is adjusted with the membrane buffer (50 mM Tris-HCl containing 0.1% BSA and 0.1 mM PMSF) to give 3.0 mg/mL (or as appropriate) of protein. The membranes are aliquoted and stored at −70. ° C.
C. Radioligand Binding Assay
In wells of a 96-well format microtiter plate, is added 90, 110 or 130 μL (to make up a final volume of 200 μL) of assay buffer containing 50 mM of Tris-HCl (pH 7.4), […], 1 mg % aprotinin, 1 mg % leupeptin, 2 mg % 1,10-phenanthroline, 10 mg % trypsin inhibitor, and 0.1 mM PMSF. The inhibitors are added on the day of the experiment. […]

T1 sequence (P30518 whole entry): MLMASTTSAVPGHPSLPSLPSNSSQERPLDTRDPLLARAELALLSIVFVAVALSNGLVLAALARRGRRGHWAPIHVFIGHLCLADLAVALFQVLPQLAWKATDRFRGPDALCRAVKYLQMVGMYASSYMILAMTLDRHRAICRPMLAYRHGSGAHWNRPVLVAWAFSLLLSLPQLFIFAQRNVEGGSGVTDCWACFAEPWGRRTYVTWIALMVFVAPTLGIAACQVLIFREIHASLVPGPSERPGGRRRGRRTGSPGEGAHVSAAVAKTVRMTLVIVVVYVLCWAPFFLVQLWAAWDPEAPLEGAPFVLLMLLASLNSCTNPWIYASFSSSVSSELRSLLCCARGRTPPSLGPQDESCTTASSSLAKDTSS

IC50 | inhibition at 0.1 µM (@ 100 nM) | SMILES
0.99 µM | – | CC(=O)OCC(CN(C)C(=O)c1ccc2n1Cc1ccccc1N(C(=O)c1ccc(-c3ccccc3C(F)(F)F)c(C)c1)C2)OC(C)=O (centres unmarked) [Example 13, 2-(Acetyloxy)-1-({methyl[(10-{[2-methyl-2′-trifluoromethyl-[1,1′-biphenyl]-4-yl]carbonyl}-10,11-dihydro-5H-pyrrolo[2,1-c][1,4]benzodiazepin-3-yl)carbonyl]amino}methyl)ethyl acetate]
0.633 µM | – | Cc1cc(C(=O)N2Cc3ccc(C(=O)N(C)CC(O)CO)n3Cc3ccccc32)ccc1-c1ccccc1C(F)(F)F (centres unmarked) [Example 2, 10-[(2-Methyl-2′-trifluoromethyl-[1,1′-biphenyl]-4-yl)carbonyl]-10,11-dihydro-5H-pyrrolo[2,1-c][1,4]benzodiazepine-3-carboxylic acid (2,3-dihydroxy-propyl)-methyl-amide]

Further lines, the compound ahead of its results:

SMILES | IC50 | inhibition at 0.1 µM (@ 100 nM)
Cc1ccccc1-c1ccc(C(=O)N2Cc3ccc(C(=O)N4CCN(CCO)CC4)n3Cc3ccccc32)cc1 [Example 45, [4-(2-Hydroxyethyl)-1-piperazinyl]{10-[(2′-methyl[1,1′-biphenyl]-4-yl)carbonyl]-10,11-dihydro-5H-pyrrolo[2,1-c][1,4]benzodiazepin-3-yl}methanone] | – | 9%
COC[C@H](O)CN1CCN(C(=O)c2ccc3n2Cc2ccccc2N(C(=O)c2ccc(-c4ccccc4C(F)(F)F)c(C)c2)C3)CC1 [Example 8, (2R)-1-Methoxy-3-{4-[(10-{[2-methyl-2′-trifluoromethyl-[1,1′-biphenyl]-4-yl]carbonyl}-10,11-dihydro-5H-pyrrolo[2,1-c][1,4]benzodiazepin-3-yl)carbonyl]piperazin-1-yl}propan-2-ol] | 0.769 µM | –
COc1cc(-c2ccccc2C)c(Cl)cc1C(=O)N1Cc2ccc(C(=O)N3CCN(CCO)CC3)n2Cc2ccccc21 [Example 39, {10-[(6-Chloro-3-methoxy-2′-methyl[1,1′-biphenyl]-4-yl)carbonyl]-10,11-dihydro-5H-pyrrolo[2,1-c][1,4]benzodiazepin-3-yl}[4-(2-hydroxyethyl)-1-piperazinyl]methanone] | 0.383 µM | –
